From ChEMBL document CHEMBL5465560, “Selectivity Literature for EUbOPEN Chemogenomic Library” (2024)
Blank lines part the entries; values can stand above or below the compound they belong to.

What was measured:
[1] = target: T1, Interleukin-1 receptor-associated kinase 3 (Homo sapiens) (UniProt Q9Y616); assay: Selectivity interaction (KinomeScan (DiscoverX)) EUB0000607a IRAK3; settings: at 10 µM
T1 sequence (whole entry): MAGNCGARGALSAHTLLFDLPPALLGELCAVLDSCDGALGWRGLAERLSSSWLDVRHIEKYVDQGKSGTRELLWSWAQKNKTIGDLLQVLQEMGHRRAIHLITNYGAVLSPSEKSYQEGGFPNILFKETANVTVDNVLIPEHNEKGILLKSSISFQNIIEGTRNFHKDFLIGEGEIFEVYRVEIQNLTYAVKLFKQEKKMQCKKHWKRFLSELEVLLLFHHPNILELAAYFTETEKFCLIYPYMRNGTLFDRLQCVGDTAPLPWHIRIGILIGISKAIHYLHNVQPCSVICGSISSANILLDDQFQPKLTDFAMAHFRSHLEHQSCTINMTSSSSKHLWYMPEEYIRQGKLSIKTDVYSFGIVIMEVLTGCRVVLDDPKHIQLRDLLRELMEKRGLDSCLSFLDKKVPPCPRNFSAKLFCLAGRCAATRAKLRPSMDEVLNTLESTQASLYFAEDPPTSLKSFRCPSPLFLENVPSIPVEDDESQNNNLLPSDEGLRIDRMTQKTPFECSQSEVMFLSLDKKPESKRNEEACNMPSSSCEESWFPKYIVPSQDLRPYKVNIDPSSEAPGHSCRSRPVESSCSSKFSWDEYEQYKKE

[2] = target: Insulin-like growth factor 1 receptor (Homo sapiens, UniProt P08069); settings: at 3 µM
Chain of Insulin-like growth factor 1 receptor (P08069 31-736 limits assumed): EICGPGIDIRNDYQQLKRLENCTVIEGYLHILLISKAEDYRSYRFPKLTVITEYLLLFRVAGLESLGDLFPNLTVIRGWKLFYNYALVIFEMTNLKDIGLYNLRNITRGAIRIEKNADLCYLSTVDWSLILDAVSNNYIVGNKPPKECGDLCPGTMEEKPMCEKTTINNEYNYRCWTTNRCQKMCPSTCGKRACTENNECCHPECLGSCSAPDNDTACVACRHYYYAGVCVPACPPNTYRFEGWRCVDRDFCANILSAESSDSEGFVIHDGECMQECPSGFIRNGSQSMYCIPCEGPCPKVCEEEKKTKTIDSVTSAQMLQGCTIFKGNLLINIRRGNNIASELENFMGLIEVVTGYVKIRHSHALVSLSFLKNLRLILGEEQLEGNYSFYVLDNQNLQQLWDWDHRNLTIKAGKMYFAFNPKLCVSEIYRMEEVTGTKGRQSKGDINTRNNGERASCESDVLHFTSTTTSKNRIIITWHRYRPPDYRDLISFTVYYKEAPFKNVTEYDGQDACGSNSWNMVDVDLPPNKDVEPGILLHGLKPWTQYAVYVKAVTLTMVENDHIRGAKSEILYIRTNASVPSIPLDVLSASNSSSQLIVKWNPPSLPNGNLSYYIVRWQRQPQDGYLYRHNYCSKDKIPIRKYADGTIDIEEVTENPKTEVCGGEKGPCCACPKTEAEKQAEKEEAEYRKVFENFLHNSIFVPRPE
Chain of Insulin-like growth factor 1 receptor (P08069 741-1367 limits assumed): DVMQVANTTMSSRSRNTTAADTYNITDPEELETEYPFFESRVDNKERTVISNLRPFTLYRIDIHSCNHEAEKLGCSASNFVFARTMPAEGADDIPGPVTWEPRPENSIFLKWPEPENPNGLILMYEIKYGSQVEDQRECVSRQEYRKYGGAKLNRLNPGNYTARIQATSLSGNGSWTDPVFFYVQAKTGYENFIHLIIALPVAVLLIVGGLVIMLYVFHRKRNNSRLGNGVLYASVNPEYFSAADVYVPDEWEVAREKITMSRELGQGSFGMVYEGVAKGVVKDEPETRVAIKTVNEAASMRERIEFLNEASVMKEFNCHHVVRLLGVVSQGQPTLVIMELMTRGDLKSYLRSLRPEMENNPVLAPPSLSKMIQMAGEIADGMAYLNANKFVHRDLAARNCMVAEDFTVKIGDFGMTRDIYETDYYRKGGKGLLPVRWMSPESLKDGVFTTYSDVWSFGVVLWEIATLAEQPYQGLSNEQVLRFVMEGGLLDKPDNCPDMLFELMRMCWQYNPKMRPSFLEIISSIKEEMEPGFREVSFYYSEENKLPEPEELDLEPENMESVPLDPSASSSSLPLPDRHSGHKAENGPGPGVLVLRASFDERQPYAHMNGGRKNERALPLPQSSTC

[3] = target: T2, Serine/threonine-protein kinase TAO3 (Homo sapiens) (UniProt Q9H2K8); assay: Selectivity interaction (KinomeScan (DiscoverX)) EUB0000655a TAOK3; settings: at 10 µM
T2 sequence (whole entry): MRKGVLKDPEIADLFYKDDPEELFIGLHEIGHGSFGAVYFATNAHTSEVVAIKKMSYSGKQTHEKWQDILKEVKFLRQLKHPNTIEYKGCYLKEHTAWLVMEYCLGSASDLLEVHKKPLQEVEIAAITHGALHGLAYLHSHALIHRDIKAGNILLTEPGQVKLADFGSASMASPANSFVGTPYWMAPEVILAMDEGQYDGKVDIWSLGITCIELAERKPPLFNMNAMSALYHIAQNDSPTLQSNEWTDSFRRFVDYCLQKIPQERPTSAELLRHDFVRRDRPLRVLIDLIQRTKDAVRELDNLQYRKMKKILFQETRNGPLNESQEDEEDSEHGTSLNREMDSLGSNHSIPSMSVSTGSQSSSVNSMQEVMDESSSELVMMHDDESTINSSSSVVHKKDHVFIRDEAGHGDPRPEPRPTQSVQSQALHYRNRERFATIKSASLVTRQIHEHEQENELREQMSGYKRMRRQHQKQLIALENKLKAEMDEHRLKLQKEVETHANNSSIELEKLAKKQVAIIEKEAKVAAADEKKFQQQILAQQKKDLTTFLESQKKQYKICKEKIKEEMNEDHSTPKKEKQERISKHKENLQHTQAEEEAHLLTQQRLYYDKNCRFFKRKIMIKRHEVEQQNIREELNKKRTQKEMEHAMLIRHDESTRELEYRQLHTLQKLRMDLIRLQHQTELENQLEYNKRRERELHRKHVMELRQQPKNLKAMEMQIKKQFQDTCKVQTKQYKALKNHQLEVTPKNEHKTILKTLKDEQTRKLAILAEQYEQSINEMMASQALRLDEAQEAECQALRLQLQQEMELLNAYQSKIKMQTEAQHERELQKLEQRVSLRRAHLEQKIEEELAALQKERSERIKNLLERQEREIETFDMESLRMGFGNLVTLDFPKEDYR

[4] = target: T3, Mitogen-activated protein kinase kinase kinase 3 (Homo sapiens) (UniProt Q99759); assay: Selectivity interaction (KinomeScan (DiscoverX)) EUB0000045b MAP3K3
T3 sequence (whole entry): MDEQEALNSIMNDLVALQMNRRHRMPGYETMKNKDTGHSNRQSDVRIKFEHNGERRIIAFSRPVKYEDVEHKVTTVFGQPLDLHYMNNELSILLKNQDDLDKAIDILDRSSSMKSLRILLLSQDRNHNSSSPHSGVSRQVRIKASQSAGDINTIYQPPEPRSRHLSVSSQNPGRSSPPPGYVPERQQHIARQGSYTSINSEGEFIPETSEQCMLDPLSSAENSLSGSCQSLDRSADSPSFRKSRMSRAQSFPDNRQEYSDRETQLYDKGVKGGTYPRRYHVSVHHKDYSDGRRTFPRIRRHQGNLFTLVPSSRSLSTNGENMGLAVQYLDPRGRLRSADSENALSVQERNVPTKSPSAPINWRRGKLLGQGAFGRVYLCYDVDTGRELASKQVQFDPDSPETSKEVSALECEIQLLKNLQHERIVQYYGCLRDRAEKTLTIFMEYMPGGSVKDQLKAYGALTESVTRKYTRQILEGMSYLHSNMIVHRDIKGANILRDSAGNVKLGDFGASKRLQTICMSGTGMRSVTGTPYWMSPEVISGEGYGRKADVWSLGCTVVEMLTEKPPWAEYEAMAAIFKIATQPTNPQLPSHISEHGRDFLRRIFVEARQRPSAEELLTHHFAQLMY

[5] = target: Platelet-derived growth factor receptor beta (Homo sapiens, UniProt P09619); assay: Selectivity interaction (KinomeScan (DiscoverX)) EUB0000229b PDGFRB; settings: at 10 µM
Chain of Platelet-derived growth factor receptor beta (P09619 whole entry): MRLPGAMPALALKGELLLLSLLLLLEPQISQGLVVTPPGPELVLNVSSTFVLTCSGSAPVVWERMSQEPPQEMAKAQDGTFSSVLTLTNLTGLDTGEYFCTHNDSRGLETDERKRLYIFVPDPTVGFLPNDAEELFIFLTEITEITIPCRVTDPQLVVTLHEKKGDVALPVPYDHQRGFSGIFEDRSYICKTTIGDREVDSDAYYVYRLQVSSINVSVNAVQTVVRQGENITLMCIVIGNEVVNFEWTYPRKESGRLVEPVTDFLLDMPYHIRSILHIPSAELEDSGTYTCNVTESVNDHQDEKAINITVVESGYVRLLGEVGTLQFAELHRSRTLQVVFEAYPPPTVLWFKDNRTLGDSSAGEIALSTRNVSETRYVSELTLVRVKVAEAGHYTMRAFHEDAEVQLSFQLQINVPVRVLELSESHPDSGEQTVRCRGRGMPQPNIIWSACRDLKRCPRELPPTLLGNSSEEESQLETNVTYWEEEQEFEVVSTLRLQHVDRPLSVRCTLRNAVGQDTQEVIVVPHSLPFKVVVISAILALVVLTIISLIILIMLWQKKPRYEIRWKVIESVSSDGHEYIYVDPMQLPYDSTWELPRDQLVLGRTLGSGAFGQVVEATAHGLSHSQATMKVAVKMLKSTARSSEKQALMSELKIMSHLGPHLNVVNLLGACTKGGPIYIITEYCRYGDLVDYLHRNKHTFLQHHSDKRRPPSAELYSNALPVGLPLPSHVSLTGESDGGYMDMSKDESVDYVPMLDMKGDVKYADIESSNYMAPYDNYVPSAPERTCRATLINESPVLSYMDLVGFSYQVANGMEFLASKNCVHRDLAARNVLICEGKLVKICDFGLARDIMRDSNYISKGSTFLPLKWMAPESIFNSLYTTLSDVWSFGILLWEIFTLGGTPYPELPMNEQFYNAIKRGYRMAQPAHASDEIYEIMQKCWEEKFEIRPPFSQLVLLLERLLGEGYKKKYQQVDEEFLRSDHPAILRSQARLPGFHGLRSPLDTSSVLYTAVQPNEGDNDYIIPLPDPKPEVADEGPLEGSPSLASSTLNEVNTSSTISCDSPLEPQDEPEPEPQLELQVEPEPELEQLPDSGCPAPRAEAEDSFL

Compound: CNC(=O)Nc1ccc(-c2nc(N3CC4CCC(C3)O4)c3cnn(C4CCC5(CC4)OCCO5)c3n2)cc1
% of control [1]: 100%

% of inhibition [2]: 100%
Compound: CCc1cc(Nc2nccc(-c3c(-c4ccc(OC)c(C(=O)Nc5c(F)cccc5F)c4)nc4ccccn34)n2)c(OC)cc1N1CCC(N2CCN(S(C)(=O)=O)CC2)CC1

Compound: CN(C)CCOc1ccc(-c2nc(-c3ccncc3)c(-c3ccc4c(c3)CC/C4=N\O)[nH]2)cc1
% of control [3]: 75%

Compound: C=CC(=O)Nc1cc(-n2c(=O)ccc3cnc4ccc(-c5ccc(NS(C)(=O)=O)cc5)cc4c32)ccc1C
% of control ([4]; at 1 µM): 100%
% of control ([4]; at 10 µM): 79%

Compound: COc1cc(N(C)c2ccnc3ccc(C(F)(F)F)cc23)cc(OC)c1OC
% binding [5]: 98%
